Laboratory results reported in patent publication US20050009158A1, “Process for enzymatically resolving an enantiomeric mixture of alpha-hydroxy acids” (priority 2003, published 2005).

Assays:
[1] = test system: Aspergillus niger lipase; experiment: Aspergillus niger lipase catalyzed hydrolysis of HMB esters; assay type: biochemical; conditions: for extent of ester hydrolysis (in words): Aspergillus niger lipase, RPLC; for HMB/HMB-ester ratio for Aspergillus niger lipase catalyzed hydrolysis: ester 1 mM, lipase 120 mg, pH 7.2, approx. 25° C., 24 hours
Description: In one lipase mediated hydrolysis, HMB-methyl ester (1 mM) was added to a 40 mL reaction vial along with water (12 mL), a 0.1 M phosphate buffer with a pH of 7.2 (2 mL) and Aspergillus niger (120 mg).
(§1) The non-enzymatic hydrolysis and the lipase mediated hydrolysis reactions were each carried out at a constant temperature of approximately 25° C. with constant stirring over the course of a 24 hour period. During the course of reaction pH of the reaction mixture was maintained at 7.2. After the reaction was complete, the reaction solvents were removed from the reaction mixture with a rotary evaporator.
(§2) After each of the hydrolysis reactions, the dry hydrolysis reaction product containing the α-hydroxy acid of HMB was dissolved in ethanol (10 mL), a sample of the reaction product solution (1 mL) was taken and diluted with additional ethanol (9 mL) and the further diluted solution was filtered through a filter having a pore size of 2 μm (Model manufactured by Millipore Corp. of Bedford, Mass.). The filtered extract was then introduced into the liquid chromatograph and the free acid and residual ester were separated on a C-8 reverse phase liquid chromatography column of the type described above.
(§3) Ethanol was removed from the remaining product mixture by rotary evaporation and the α-hydroxy acid product was re-dissolved in ethyl acetate (5 mL). The solution containing the α-hydroxy acid product was transferred to a 15 mL centrifuge tube to which 1 M sodium bicarbonate (6 mL) was added after which the centrifuge tube was shaken for a period of about five minutes, thus forming an ethyl acetate layer containing HMB-methyl ester and a sodium bicarbonate layer containing D- and L-enantiomers of the α-hydroxy acid, HMB. These layers were then separated with a centrifuge and each of the separated layers were brought to near dryness with a rotary evaporator and the residue from the bicarbonate layer was dissolved in ethanol (5 mL) to form a solution which was filtered and analyzed for D- and L-enantiomers of HMB by chiral liquid chromatography in accordance with the method set forth below.
(§4) The dry residue from the ethyl acetate layer containing HMB-methyl ester was hydrolyzed with 6N HCl (2 mL) for a period of two hours to produce HMB which was solubilized in ethanol. The ethanol solutions were filtered and analyzed for D- and L-enantiomers of HMB by chiral liquid chromatography in accordance with the method set forth below.
(§5) Separation of the D- and L-forms of the α-hydroxy acid of HMB present in the sodium bicarbonate phase was carried out by liquid chromatography (LC) with a UV absorbance detector in tandem with electrospray ionization mass spectrometry in the negative mode (ESI(−)MS). […] The electrospray ionization mass spectrometer utilized was manufactured by Hitachi High Technologies (Model M-8000). The mobile phase composition consisted of 70% ammonium acetate buffer (pH 4, 30 mM) and 30% methanol. A macrocyclic antibiotic based column (Chirobiotic-TAG), manufactured by Advanced Separation Technologies, Inc., Whippany, N.J., was used for the chiral liquid chromatography.

[2] = Non-enzymatic hydrolysis of HMB esters in phosphate buffer; assay type: physicochemical; conditions: for HMB/HMB-ester ratio for non-enzyme catalyzed hydrolysis: ester 1 mM, phosphate buffer pH 7.2, approx. 25° C., 24 hours
Description: To carry out the hydrolysis of the ester, HMB-methyl ester (1 mM) was added to a 40 mL reaction vial along with water (12 mL) and a 0.1 M phosphate buffer having a pH of 7.2 (2 mL). The reaction was carried out at a constant temperature of, approximately 25° C. and constant stirring over a period of 24 hours. During the course of the reaction, the pH of the reaction mixture was maintained at 7.2. After the reaction was complete, the reaction solvents were removed from the reaction mixture with a rotary evaporator.
as §1, §2, §3, §4, §5

[3] = test system: Candida rugosa lipase; experiment: Candida rugosa lipase catalyzed hydrolysis of HMB esters; assay type: biochemical; conditions: for extent of ester hydrolysis (in words): Candida rugosa lipase, RPLC; for HMB/HMB-ester ratio for Candida rugosa lipase catalyzed hydrolysis: ester 1 mM, lipase 120 mg, pH 7.2, approx. 25° C., 24 hours
Description: In another lipase mediated hydrolysis, HMB-methyl ester (1 mM) was added to a 40 mL reaction vial along with water (12 mL), a 0.1 M phosphate buffer with a pH of 7.2 (2 mL) and Candida rugosa (120 mg).
as §1, §2, §3, §4, §5

[4] = target: T1, Novo 435 (Candida antarctica) lipase (Moesziomyces antarcticus, UniProt P41365); experiment: Novo 435 (Candida antarctica) lipase catalyzed hydrolysis of HMB esters; assay type: biochemical; conditions: for extent of ester hydrolysis (in words): Novo 435, RPLC; for HMB/HMB-ester ratio for Novo 435 (Candida antarctica) lipase catalyzed hydrolysis: ester 1 mM, immobilized lipase 6 mg, pH 7.2, approx. 25° C., 24 hours
T1 construct: purchased Novo (only as part of the product name) 435 (also given as 438)
T1 sequence (P41365 26-342): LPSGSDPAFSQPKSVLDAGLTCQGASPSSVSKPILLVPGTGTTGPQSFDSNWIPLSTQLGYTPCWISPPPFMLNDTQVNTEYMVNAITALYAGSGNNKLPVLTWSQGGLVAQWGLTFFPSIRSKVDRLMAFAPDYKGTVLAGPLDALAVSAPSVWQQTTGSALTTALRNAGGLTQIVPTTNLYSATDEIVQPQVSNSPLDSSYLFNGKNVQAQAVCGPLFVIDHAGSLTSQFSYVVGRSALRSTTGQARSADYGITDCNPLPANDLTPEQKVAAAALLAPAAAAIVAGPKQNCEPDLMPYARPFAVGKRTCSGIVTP
Description: In another lipase mediated hydrolysis, HMB-methyl ester (1 mM) was added to a 40 mL reaction vial along with water (12 mL), a 0.1 M phosphate buffer with a pH of 7.2 (2 mL) which was contacted with an immobilized sample of Novo 438 (Candida antarctica) (6 mg).
as §1, §2

[5] = target: T2, porcine pancreatic lipase (PPL) (Sus scrofa, UniProt P00591); experiment: PPL lipase catalyzed hydrolysis of HMB esters; assay type: biochemical; conditions: for extent of ester hydrolysis (in words): PPL, RPLC; for HMB/HMB-ester ratio for PPL lipase catalyzed hydrolysis: ester 1 mM, PPL 120 mg, pH 7.2, approx. 25° C., 24 hours; for Enantioselectivity of hydrolysis: Free Acid (L/D) / Enantioselectivity of hydrolysis: Ester (L/D): lipase PPL; for Enantioselectivity of hydrolysis: Free Acid (L/D): chiral LC of HMB from bicarbonate layer; for Enantioselectivity of hydrolysis: Ester (L/D): unhydrolyzed ester, chiral LC after 6N HCl hydrolysis
T2 sequence (P00591 1-450): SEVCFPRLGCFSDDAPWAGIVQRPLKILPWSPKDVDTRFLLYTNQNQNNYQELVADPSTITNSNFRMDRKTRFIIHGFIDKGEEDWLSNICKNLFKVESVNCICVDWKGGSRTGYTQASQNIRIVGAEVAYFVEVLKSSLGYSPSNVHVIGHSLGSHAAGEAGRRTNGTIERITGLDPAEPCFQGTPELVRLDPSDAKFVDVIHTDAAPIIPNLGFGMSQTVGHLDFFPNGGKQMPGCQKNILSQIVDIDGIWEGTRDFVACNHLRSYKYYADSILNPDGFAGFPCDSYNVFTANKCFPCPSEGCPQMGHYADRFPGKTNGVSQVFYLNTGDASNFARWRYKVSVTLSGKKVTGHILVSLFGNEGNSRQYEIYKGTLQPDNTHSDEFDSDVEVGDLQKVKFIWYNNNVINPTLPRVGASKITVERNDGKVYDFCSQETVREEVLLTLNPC
Description: In another lipase mediated hydrolysis, HMB-methyl ester (1 mM) was added to a 40 mL reaction vial along with water (12 mL), a 0.1 M phosphate buffer with a pH of 7.2 (2 mL) and PPL (120 mg).
as §1, §2, §3, §4, §5
As part of these investigations, HMB-butyl ester and HMB obtained from the hydrolysis were recovered from the reaction mixture through portioning in ethyl acetate and […] bicarbonate solution. The HMB acid was recovered from the bicarbonate solution; it was introduced into an enantioselective HPLC system. The recovered HMB-butyl ester was hydrolyzed with 6N HCl (chemically) and then introduced into the enantioselective HPLC system. Chromatograms of HMB enantiomers obtained after non-enzymatic and PPL catalyzed HMB-butyl ester hydrolysis are illustrated in FIGS. 7A-B respectively.

[6] = target: T3, immobilized PPL (Sus scrofa, UniProt P00591); experiment: Hydrolysis of HMB propyl ester using gel-bound (alginate-immobilized) PPL beads; assay type: biochemical, porcine; conditions: after a run of 3 hrs
T3 sequence (P00591 1-450): T2 sequence (P00591 1-450)
Description: Sodium alginate (500 mg), gelatin (300 mg) and water (9 ml) are introduced into and mixed in a 50 ml conical flask. The mix is then left undisturbed for 1 hour, after which the flask and its contents are autoclaved (120° C., 15 min.). The contents are then cooled at room temperature under continuous stirring. After the contents have cooled down, PPL (100 mg) in water (1 ml) is added to the flask and the contents stirred for further 15-20 min. Then glutaraldehyde (300 μl) is added to the flask contents and the mixture stirred for another 15 min. These contents are added drop-wise from a distance of around 10 cm by forcing them through the hypodermic needle in a 0.18M calcium chloride solution (2°-3° C.) . The gel breads solidify immediately upon contact with the calcium chloride solution, and after 30 min. are solidified. The solidified gel beads are washed 3-4 times with water to remove any loose enzyme from the surface.
The immobilized enzyme catalyst beads as prepared in the manner described in Example 6 were placed in a conical flask. […]
Reversed phase chromatography method was used for all the chromatograms set forth in the drawings. […] The reaction was monitored at 220 nm and gradient elution for the mobile phases used was 0 to 55% solvent B in 30 min.

[7] = Hydrolysis of HMB propyl ester with alginate beads without enzymes (control); assay type: physicochemical; conditions: water, 37° C., 2 hours and 3.30 hours
Description: Reversed phase chromatography method was used for all the chromatograms set forth in the drawings. The mobile phases chosen were water +0.1% trifluroacetic acid (TFA) (solvent A) and acetonitrile +0.1% TFA (solvent B). The column was maintained at 30° C. The reaction was monitored at 220 nm and gradient elution for the mobile phases used was 0 to 55% solvent B in 30 min.
The hydrolysis of HMBP was also checked using alginate beads without enzymes(CONTROL). The gel beads were placed in a conical flask of water (20 ml) and HMB propyl ester (240 mg) were added to it. The mixture was thereafter maintained at a temperature of 37° C. The chromatograms of FIGS. 15A and 15B are obtained for the product formed, for the same time constraints as before.

| SMILES | extent of ester hydrolysis (in words) [1] | HMB/HMB-ester ratio for Aspergillus niger lipase catalyzed hydrolysis [1] | ester hydrolyzed by non-enzymatic hydrolysis ([2]; FIG. 4A) | HMB/HMB-ester ratio for non-enzyme catalyzed hydrolysis [2] | D- and L-HMB enantiomers obtained through chemical hydrolysis ([2]; non-enzymatic hydrolysis, FIG. 7A) | extent of ester hydrolysis (in words) [3] | HMB/HMB-ester ratio for Candida rugosa lipase catalyzed hydrolysis [3] | extent of ester hydrolysis (in words) [4] | HMB/HMB-ester ratio for Novo 435 (Candida antarctica) lipase catalyzed hydrolysis [4] | concentration of L-enantiomer relative to D-enantiomer of HMB obtained ([5]; PPL catalyzed hydrolysis, FIG. 7B) | extent of ester hydrolysis (in words) [5] | HMB/HMB-ester ratio for PPL lipase catalyzed hydrolysis [5] | Enantioselectivity of hydrolysis: Free Acid (L/D) [5] | Enantioselectivity of hydrolysis: Ester (L/D) [5] | Enantioselectivity of hydrolysis: Free Acid (L/D) ([3]; lipase Candida rugosa, chiral LC of HMB from bicarbonate layer) | Enantioselectivity of hydrolysis: Ester (L/D) ([3]; lipase Candida rugosa, unhydrolyzed ester, chiral LC after 6N HCl hydrolysis) | Enantioselectivity of hydrolysis: Free Acid (L/D) ([1]; lipase Aspergillus niger, chiral LC of HMB from bicarbonate layer) | Enantioselectivity of hydrolysis: Ester (L/D) ([1]; lipase Aspergillus niger, unhydrolyzed ester, chiral LC after 6N HCl hydrolysis) | conversion of ester to HMB acid [6] [%] | hydrolysis with alginate beads without enzymes [7] |
| --- | --- | --- | --- | --- | --- | --- | --- | --- | --- | --- | --- | --- | --- | --- | --- | --- | --- | --- | --- | --- |
| CCCCOC(=O)C(O)CCSC (centres unmarked) [HMB-butyl ester, HMB butyl ester] | Essentially all | 160.57 | less than 1% | 0.09 | equal concentrations | Essentially all | 42.6 | Essentially all | 176.3 | nearly four times | only partial | 2.0 | 81/19 | 19/81 |  |  |  |  |  |  |
| CCOC(=O)C(O)CCSC (centres unmarked) [HMB-ethyl ester, HMB ethyl ester] |  | 16.71 |  | 0.53 |  |  | 7.84 |  |  |  |  | 0.94 | 57/43 | 43/57 | 62/38 | 38/62 |  |  |  |  |
| CSCCC(O)C(=O)OC(C)C (centres unmarked) [HMB-isopropyl ester, HMB isopropyl ester] |  | 0.81 |  | 0.36 |  |  | 9.8 |  | 165 |  |  | 3.3 |  |  |  |  | 68/32 | 32/68 |  |  |
| COC(=O)C(O)CCSC (centres unmarked) [HMB-methyl ester, HMB methyl ester] | partial | 4.55 |  | 1.45 |  | near completion | 62.37 | near completion | 128 |  | partial | 2.53 |  |  |  |  |  |  |  |  |
| CCCOC(=O)C(O)CCSC (centres unmarked) [HMB-propyl ester, HMB propyl ester] |  | 149.24 |  | 0.09 |  |  | 84.45 |  | 52.27 |  |  | 1.69 | 75/25 | 22/78 |  |  |  |  | 50 | no hydrolysis |
